Like-named read-outs stand apart in the source and are kept apart here.
Experiments:
[1] = biological target: T1, TAAR1 (Homo sapiens, UniProt Q96RJ0); test: BRET-based cellular cAMP (EPAC biosensor) assay of TAAR1 agonism in transfected HEK-293 cells; conditions: for Emax: HEK293, read-out: Emax: maximum observed activation of TAAR1 relative to that observed for 1 μM of β-PEA
T1 sequence (Q96RJ0 1-339): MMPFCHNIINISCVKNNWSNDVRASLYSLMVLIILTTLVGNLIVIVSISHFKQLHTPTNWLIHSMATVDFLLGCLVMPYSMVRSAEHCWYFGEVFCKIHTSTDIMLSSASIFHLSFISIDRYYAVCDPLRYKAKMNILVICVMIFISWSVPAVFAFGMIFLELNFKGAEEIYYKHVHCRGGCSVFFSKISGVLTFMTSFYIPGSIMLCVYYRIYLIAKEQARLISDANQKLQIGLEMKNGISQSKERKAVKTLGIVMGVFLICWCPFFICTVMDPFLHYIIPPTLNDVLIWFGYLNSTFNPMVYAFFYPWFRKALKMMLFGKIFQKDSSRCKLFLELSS
Description: The Bioluminescence Resonance Energy Transfer approach (BRET) has been used for functional activity experiments. HEK-293 cells were transiently transfected with cDNA for TAARs and cAMP BRET biosensor (EPAC) and then plated in a 96-well plate, as described [23]. All compounds were tested at the initial concentration of 10 µM. […] A natural agonist of TAAR1 β-phenylethylamine (β-PEA) was used as a positive control.

[2] = TAAR1 activation, BRET assay, HEK-293, mean from 3 assays
[3] = relative to 1 μM β-PEA, mean from 3 BRET assays, errors ±5–10%

Compound | melting point | EC50 [1] | Emax [1] | EC50 [1, 2] | Emax: maximum observed activation of TAAR1 relative to that observed for 1 μM of β-PEA [1, 3] | Emax: maximum observed activation of TAAR1 relative to that observed for 1 μM of β-PEA [1]
CCOc1ccc(-c2nnc(CCN)[nH]2)cc1.Cl [Compound 25, 2-(5-(4-Ethoxyphenyl)-4H-1,2,4-triazol-3-yl)ethan-1-amine Hydrochloride] | 235 to 236 °C | 0.55 µM | 139% |  |  | 
Cc1cc(-c2nnc(CCN)[nH]2)ccc1Br.Cl [Compound 12, 2-(5-(4-Bromo-3-methylphenyl)-4H-1,2,4-triazol-3-yl)ethan-1-amine Hydrochloride] | 251 to 252 °C | 0.812 µM | 87% |  |  | 
COc1ccc(-c2ccc(-c3nnc(CCN)[nH]3)cc2)cc1OC.Cl [Compound 64, 2-(5-(3′,4′-Dimethoxy-(1,1′-biphenyl)-4-yl)-4H-1,2,4-triazol-3-yl)ethan-1-amine Hydrochloride] | 199 to 201 °C | 0.185 µM | 104% |  |  | 
Cl.NCCc1nnc(-c2cccs2)[nH]1 [Compound 16, 2-(5-(Thiophen-2-yl)-4H-1,2,4-triazol-3-yl)ethan-1-amine Hydrochloride] | 248 to 250 °C | > 1 µM | 138% |  |  | 
CCOc1cc(-c2nnc(CCN)[nH]2)cc(OCC)c1OCC.Cl [Compound 32, 2-(5-(3,4,5-Triethoxyphenyl)-4H-1,2,4-triazol-3-yl)ethan-1-amine Hydrochloride] | 253 to 255 °C |  |  | inactive | inactive | 
Cl.NCCc1nnc(-c2ccc(-c3cc(F)cc(F)c3)cc2)[nH]1 [Compound 65, 2-(5-(3′,5′-Difluoro-(1,1′-biphenyl)-4-yl)-4H-1,2,4-triazol-3-yl)ethan-1-amine Hydrochloride] | 260 to 262 °C | 0.013 µM | 105% |  |  | 
Cl.NCCc1nnc(COc2ccccc2)[nH]1 [Compound 17, 2-(5-(Phenoxymethyl)-4H-1,2,4-triazol-3-yl)ethan-1-amine Hydrochloride] | 206 to 207 °C |  |  | inactive | inactive | 
Cc1cc(-c2nnc(CCN)[nH]2)ccc1I.Cl [Compound 42, 2-(5-(4-Iodo-3-methylphenyl)-4H-1,2,4-triazol-3-yl)ethan-1-amine Hydrochloride] | 225 to 227 °C | > 1 µM | 76% |  |  | 
Cl.NCCc1nnc(-c2ccccc2OC(F)(F)F)[nH]1 [Compound 39, 2-(5-(2-[Trifluoromethoxy]phenyl)-4H-1,2,4-triazol-3-yl)ethan-1-amine Hydrochloride] | 208 to 211 °C |  |  | inactive | inactive | 
Cc1cc(-c2nnc(CCN)[nH]2)ccc1O.Cl [Compound 57, 4-(5-(2-Aminoethyl)-4H-1,2,4-triazol-3-yl)-2-methylphenol Hydrochloride] | 158 to 160 °C | > 1 µM | 90% |  |  | 
Cl.NCCc1nnc(-c2cccc([N+](=O)[O-])c2)[nH]1 [Compound 36, 2-(5-(3-Nitrophenyl)-4H-1,2,4-triazol-3-yl)ethan-1-amine Hydrochloride] | 214 to 216 °C | 0.44 µM | 110% |  |  | 
Cl.NCCc1nnc(-c2ccc(Cl)cc2)[nH]1 [Compound 28, 2-(5-(4-Chlorophenyl)-4H-1,2,4-triazol-3-yl)ethan-1-amine Hydrochloride] | 239 to 241 °C | 0.522 µM | 107% |  |  | 
COc1cc(OC)cc(-c2nnc(CCN)[nH]2)c1.Cl [Compound 33, 2-(5-(3,5-Dimethoxyphenyl)-4H-1,2,4-triazol-3-yl)ethan-1-amine Hydrochloride] | 245 to 247 °C |  | 55% | > 1 µM |  | 
Cl.NCCc1nnc(-c2ccc(OCc3ccccc3F)c(I)c2)[nH]1 [Compound 56, 2-(5-(4-[(2-Fluorobenzyl)oxy]-3-iodophenyl)-4H-1,2,4-triazol-3-yl)ethan-1-amine Hydrochloride] | 208 to 209 °C | 0.316 µM | 87% |  |  | 
CN(C)c1ccc(-c2nnc(CCN)[nH]2)cc1 [Compound 30, 4-(5-(2-Aminoethyl)-4H-1,2,4-triazol-3-yl)-N,N-dimethylaniline] | 244 to 246 °C |  |  | 0.73 µM |  | 122
Cc1cc(-c2nnc(CCN)[nH]2)ccc1OCc1cccc(F)c1.Cl [Compound 47, 2-(5-(4-[(3-Fluorobenzyl)oxy]-3-methylphenyl)-4H-1,2,4-triazol-3-yl)ethan-1-amine Hydrochloride] | 215 to 216 °C | 0.142 µM | 106% |  |  | 
Cl.NCCc1nnc(-c2ccc(C(F)(F)F)cc2)[nH]1 [Compound 15, 2-(5-(4-[Trifluoromethyl]phenyl)-4H-1,2,4-triazol-3-yl)ethan-1-amine Hydrochloride] | 254 to 255 °C |  |  | inactive | inactive | 
Cl.NCCc1nnc(-c2cnccn2)[nH]1 [Compound 38, 2-(5-(Pyrazin-2-yl)-4H-1,2,4-triazol-3-yl)ethan-1-amine Hydrochloride] | 184 to 186 °C |  |  | inactive | inactive | 
Cl.NCCc1nnc(-c2ccc(OC(F)(F)F)cc2)[nH]1 [Compound 9, 2-(5-(4-[Trifluoromethoxy]phenyl)-4H-1,2,4-triazol-3-yl)ethan-1-amine Hydrochloride] | 253 to 254 °C | 0.31 µM | 116% |  |  | 
Cl.NCCc1nnc(-c2ccccc2Br)[nH]1 [Compound 29, 2-(5-(2-Bromophenyl)-4H-1,2,4-triazol-3-yl)ethan-1-amine Hydrochloride] | 194 to 196 °C | 0.696 µM | 111% |  |  | 
Cl.NCCc1nnc(-c2ccc(OCc3ccc(F)cc3)cc2)[nH]1 [Compound 45, 2-(5-(4-[(4-Fluorobenzyl)oxy]phenyl)-4H-1,2,4-triazol-3-yl)ethan-1-amine Hydrochloride] | 220 to 222 °C | 0.022 µM | 114% |  |  | 
Cl.NCCc1nnc(-c2cccc(I)c2)[nH]1 [Compound 41, 2-(5-(3-Iodophenyl)-4H-1,2,4-triazol-3-yl)ethan-1-amine Hydrochloride] | 224 to 225 °C | 0.89 µM | 80% |  |  | 
COc1ccc(-c2nnc(CCN)[nH]2)cc1.Cl [Compound 6, 2-(5-(4-Methoxyphenyl)-4H-1,2,4-triazol-3-yl)ethan-1-amine Hydrochloride] | 248 to 250 °C | > 1 µM | 56% |  |  | 
Cl.NCCc1nnc(-c2ccc3ncccc3c2)[nH]1 [Compound 35, 2-(5-(Quinolin-6-yl)-4H-1,2,4-triazol-3-yl)ethan-1-amine Hydrochloride] | 265 to 267 °C | > 1 µM | 41% |  |  | 
Cl.NCCc1nnc(-c2ccc(F)cc2)[nH]1 [Compound 34, 2-(5-(4-Fluorophenyl)-4H-1,2,4-triazol-3-yl)ethan-1-amine Hydrochloride] | 253 to 256 °C | > 1 µM | 169% |  |  | 
COc1cccc(-c2nnc(CCN)[nH]2)c1.Cl [Compound 7, 2-(5-(3-Methoxyphenyl)-4H-1,2,4-triazol-3-yl)ethan-1-amine Hydrochloride] | 235 to 236 °C | 0.91 µM | 132% |  |  | 
CCCCOc1ccc(-c2nnc(CCN)[nH]2)cc1.Cl [Compound 40, 2-(5-(4-Butoxyphenyl)-4H-1,2,4-triazol-3-yl)ethan-1-amine Hydrochloride] | 205 to 207 °C | 0.034 µM | 107% | double-digit nanomolar range |  | 
Cl.NCCc1nnc(-c2cccc(Oc3ccccc3Cl)c2)[nH]1 [Compound 53, 2-(5-(3-[2-Chlorophenoxy]phenyl)-4H-1,2,4-triazol-3-yl)ethan-1-amine Hydrochloride] | 202 to 210 °C | 0.847 µM | 71% |  |  | 
Cl.NCCc1nnc(-c2cccc(Br)c2)[nH]1 [Compound 20, 2-(5-(3-Bromophenyl)-4H-1,2,4-triazol-3-yl)ethan-1-amine Hydrochloride] | 239 to 241 °C | 0.218 µM | 124% |  |  | 
